# Experiments:
# HDAC1 = HDAC1 (Homo sapiens, UniProt Q13547); experiment: Simple Western immunoassay, HDAC1 levels in MM.1S cell lysates; type: cell-based; design: endogenous in cells; host or cells: MM.1S; conditions: MM.1S cells, 10 μM; for reduction of HDAC1 levels: 24 h
# Experimental: Figure 3 Initial degradation screening of HDAC1 and 6 by DCAF11‐recruiting PROTACs by Simple Western™ immunoassay analysis of MM.1S cell lysates. MM.1S cells were treated with the indicated compound (10 μM) or vehicle (DMSO) for 24 h. […] Bottom: Representative images from a total of n=3 biological replicates, labeled with spacer type; w/o: without spacer.
# 2. Biological Experiments
# No unexpected or unusually high safety hazards were encountered.
# The human multiple myeloma cell line MM.1S (CRL-2974) was obtained from American Type Culture Collection (ATCC, Manassas, VA, USA). The semi-adherent cells were cultivated in RPMI 1640 medium (Catalog#21875-034, Gibco, ThermoFisher Scientific Inc., Waltham, MA, USA) supplemented with 10% FBS (PAN Biotech GmbH; Aidenbach, Germany), 100 IU/mL penicil lin, 0.1 mg/mL streptomycin (PAN Biotech GmbH) and 1 mM sodium pyruvate (ThermoFisher Scientific Inc.). […]
# (PAN Biotech GmbH). All cells were cultured at 37 °C in a 5% CO2 atmosphere. Incubation times, as part of assay protocols, were performed under these conditions as well. The semi-adherent MM.1S were detached mechanically by using a cell scraper and the adhered […] were trypsinased by trypsin/EDTA (0.05%/0.02% in DPBS, PAN Biotech GmbH) whereas the U-87MG were detached by […]
# 2.2. Simple Western™ Immunoassay
# For the cell lysates, MM.1S (0.5 × 10^6 cells/mL) or U-87MG (0.18 × 10^6 cells/mL) cells were seeded and incubated with the indicated concentration of compound or vehicle (DMSO) for the given time. The adherent cells were cultured for 24 h under cell culture conditions for attachment before treatment. Cell lysis was performed with Cell Extraction Buffer (10 mM Tris, pH 7.4, 100 mM NaCl, 1 mM EDTA, […]
# SDS, 0.5% deoxycholate; Catalog# FNN0011, Thermo Fisher Scientific Inc., Waltham, MA, USA) with addition of Halt Protease Inhibitor Cocktail (100×) (Catalog# 78429, Life Technologies GmbH, Carlsbad, CA, USA) and phenylmethanesulfonyl fluoride (Catalog# 10837091001, Sigma-Aldrich, St.
# Louis, MO, USA) according to manufacturer´s instructions. Protein content was determined by Pierce™ BCA Protein Assay Kit (Catalog# 23225, Thermo Fisher Scientific Inc.) according to manufacturer´s guidelines. Cell lysates were diluted to a final concentration of 1 mg/mL and denatured according to manufacturer’s guidelines. Anti-HDAC1 (Catalog# 5356S, Cell Signaling Technology, Denver, MA, USA), anti-HDAC6 (Catalog#7558S, Cell Signaling Technology) and anti-GAPDH (Catalog# 2118S, […]
# Fluorescence Separation 8x25 Capillary Cartridges (Catalog# SM-FL004-1, Protein Simple, Bio-Techne, Minneapolis, MN, USA) were used for separation and the Anti-Mouse Detection Module (Catalog# DM-002, Protein Simple) was used for detection with addition of 20x Anti-Rabbit HRP […]
# Conjugate (Catalog# 043-426, Protein Simple) according to manufacturer´s instructions. The assay was performed with the Jess Simple Western System (catalog# 004-650, Protein Simple), according to manufacturer´s settings. Evaluation and quantification was performed with the compass software (6.2.0, Protein Simple). GraphPad Prism (GraphPad Software, San Diego, CA, USA) was used for normalization, statistical analysis and bar graph creation. Significance testing was performed with a one-way analysis of variance (ANOVA). […]
# of each mean compared to a reference mean value. […]
# AMC (Catalog# 233691-67-3, BLD pharma) was prepared with and without IGEPAL CA-630 (0.5%, Catalog# J61055, Alfa Aesar). 10 µL of the substrate solution was added and incubated for 3 h under cell culture conditions. The reaction was stopped with 100 µL of stop solution (50 mM Tris-HCl, […]
# Trypsin) and incubated for 1.5 h under cell culture conditions. The fluorescence signal was measured by a FLUOstar OPTIMA microplate reader (BMG labtech, Ortenburg, Germany) at excitation of λ = 355 nm and emission of λ = 460 nm. All Compounds were tested in two independent experiments in duplicates and IC50 was determined by nonlinear regression with GraphPad Prim.
# MDA-MB-231 cells = experiment: MTT cell viability assay; type: cell-based, human; conditions: 72 h, n.e.: no effect (≤25 % effect up to 50 μM); for EC50: Homo sapiens, MDA-MB-231
# Experimental: (§1) GraphPad Prism (GraphPad Software).
# (§2) 2.8. MTT Cell Viability Assay
# (§3) U-87MG cells (3 × 10^3 cells/well) or MDA-MB-231 cells (5 × 10^3 cells/well) were seeded in 96-well flat-bottomed plates. After 24 h the cells were incubated with the stock solutions of the respective compounds dissolved in DMSO (highest DMSO concentration, 0.5%) to reach the final concentrations as indicated. Controls received DPBS or DMSO. Following a 71 h incubation period 20 µl of a freshly prepared 5 mg/ml MTT (3-(4,5-dimethylthiazol-2-yl)-2,5-diphenyltetrazolium bromide, AppliChem GmbH, Darmstadt, Germany) solution were added into each well. The supernatant was discarded after 1 h incubation at 37 °C and the precipitated formazan was dissolved in 200 µl DMSO/well. Absorption was measured at 570 nm with background subtraction at 690 nm using a photometric microplate reader (Thermo Scientific Multiskan EX, Thermo Fisher Scientific). Data was further subtracted by the DMSO control and normalized on DPBS. The half-maximal effective concentration (EC50) was determined by plotting dose response curves and nonlinear regression with GraphPad Prism (GraphPad Software). […]
# U-87MG cells = experiment: MTT cell viability assay; type: cell-based; conditions: Homo sapiens, 72 h, n.e.: no effect (≤25 % effect up to 50 μM)
# Experimental: as §1, §2, §3
# Chain of HDAC1 (Q13547 whole entry): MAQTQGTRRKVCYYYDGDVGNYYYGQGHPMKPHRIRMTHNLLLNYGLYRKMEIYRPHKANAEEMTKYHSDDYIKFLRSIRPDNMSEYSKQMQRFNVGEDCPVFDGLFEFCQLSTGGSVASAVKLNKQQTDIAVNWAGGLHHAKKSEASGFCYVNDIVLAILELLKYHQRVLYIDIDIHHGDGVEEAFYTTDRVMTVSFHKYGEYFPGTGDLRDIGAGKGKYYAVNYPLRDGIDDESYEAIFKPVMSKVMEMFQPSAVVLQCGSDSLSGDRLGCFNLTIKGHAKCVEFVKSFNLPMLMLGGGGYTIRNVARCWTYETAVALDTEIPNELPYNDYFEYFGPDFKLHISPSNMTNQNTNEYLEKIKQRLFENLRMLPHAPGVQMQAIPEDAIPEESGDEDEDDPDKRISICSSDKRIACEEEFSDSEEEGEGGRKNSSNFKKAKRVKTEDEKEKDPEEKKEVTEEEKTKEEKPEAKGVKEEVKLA
EC50 MDA-MB-231 (MDA-MB-231 cells),EC50 MDA-MB-231 (MDA-MB-231 cells; listed as 1j‐nc),EC50 (U-87MG cells),reduction of HDAC1 levels (HDAC1),time dependent degradation of HDAC1 (HDAC1; after 6 h),EC50 (MDA-MB-231 cells),SMILES,effect on HDAC1 protein levels (HDAC1; 14 h)
n.e.,no activity,43 ± 18 µM,,,,O=CN(CCCCCCCCCCCC(=O)Nc1ccc(C(=O)NCCCCCCC(=O)NO)cc1)C(C(=O)NCc1ccccc1)c1ccc(Cl)c(Cl)c1 (centres unmarked) [Compound 1j-nc],not able to affect the protein levels of HDAC1 and 6
,,30 ± 5 µM,71%,significant degradation,28 ± 10 µM,O=C(CCCCCCNC(=O)c1ccc(NC(=O)CCCCCCCCCCCN(C(=O)CCl)C(C(=O)NCc2ccccc2)c2ccc(Cl)c(Cl)c2)cc1)NO (centres unmarked) [Compound 1j],
,,12 ± 3 µM,55%,,8.8 ± 3.2 µM,O=C(CCCCCCNC(=O)c1ccc(N(C(=O)CCl)C(C(=O)NCc2ccccc2)c2ccc(Cl)c(Cl)c2)cc1)NO (centres unmarked) [Compound 2],

# From publication PMC12091851, “Replacing a Cereblon Ligand by a DDB1 and CUL4 Associated Factor 11 (DCAF11) Recruiter Converts a Selective Histone Deacetylase 6 PROTAC into a Pan‐Degrader” (Chemmedchem, 2025)
